For 1 molecule, Normal melting temperature results are on record in the NIST ThermoML archive (doi:10.1021/acs.jced.7b00585).

For this data set the following is noted: Crystal; visual observation.

Numbers after ± are expanded uncertainties.

As to `CC1(C)COP(=O)(C(Nc2ccccc2)c2ccccc2)OC1` (stereo unspecified), the Normal melting temperature was found to be 175 ± 2 °C.
